In article PMC9569529, “Safe and Efficient Sigma1 Ligand: A Potential Drug Candidate for Multiple Sclerosis” (International Journal of Molecular Sciences, 2022):
Like-named read-outs stand apart in the source and are kept apart here.

How the values were obtained:
BCRP = BCRP (Homo sapiens, UniProt Q9UNQ0); assay: Drug transporter inhibition (ABC family); assay type: in vitro ADME; details: transporter-overexpressing cell lines, read-out: Drug transporters inhibition BCRP
Procedure: (§1) The compound was classically evaluated at 10 µM for all the ADME analyses. Bidirectional permeability (apical A to basolateral B pH 6.5/7.4 and basolateral B to apical A pH 7.4/6.5) was assessed in the epithelial colorectal adenocarcinoma cell line (Caco-2 cell line). Results were expressed as × 10^−6cm/s (Papp) and as % recovery. Efflux ratio, i.e., Papp(B-A)/Papp(A-B), was calculated. Plasma protein binding was analyzed by HPLC-MS/MS after 4-h incubation at 37 °C, as described by Banker et al.. Concentration was evaluated by LC/MS-MS. CYP inhibition was performed in human liver microsomes as described in [61]. Analysis of the respective metabolites. was performed by HPLC-MS/MS. Transporter inhibition analysis was also performed in overexpressing cell lines. Respective metabolites for each specific transporter substrate were analyzed by fluorometry or scintillation counting and % inhibition of control values were calculated. P-glycoprotein transporter substrate assessment was performed by bidirectional permeability analysis (apical A to basolateral B pH 7.4/7.4 and basolateral B to apical A pH 7.4/7.4) in the Caco-2 cell line with and without verapamil, as described in [59]. Results were expressed as ×10^−6 cm/s (Papp) and as % recovery. The efflux ratio, i.e., Papp(B-A)/Papp(A-B), was calculated. CYP450 induction characterization was performed on human hepatocytes. The mRNA levels of 7 different CYPs were analyzed by qPCR, as described in [72]. The compound was evaluated at 1, 10 and 100 µM. Fold-induction values were determined and compared to cut-off values, as defined for each CYP isozyme in each hepatocyte lot.

P-gp = target: T1, P-gp (Homo sapiens, UniProt P08183); assay: Drug transporter inhibition (ABC family); assay type: in vitro ADME; details: transporter-overexpressing cell lines, read-out: Drug transporters inhibition P-gp
T1 construct: in the Caco-2 cell line with and without verapamil; host or cells: Caco-2
Procedure: as §1

MRP1 = MRP1 (Homo sapiens, UniProt P33527); assay: Drug transporter inhibition (ABC family); assay type: in vitro ADME; details: transporter-overexpressing cell lines, read-out: Drug transporters inhibition MRP1
Procedure: as §1

MRP3 = MRP3 (Homo sapiens, UniProt O15438); assay: Drug transporter inhibition (ABC family); assay type: in vitro ADME; details: transporter-overexpressing cell lines, read-out: Drug transporters inhibition MRP3
Procedure: as §1

MRP2 = MRP2 (Homo sapiens, UniProt Q92887); assay: Drug transporter inhibition (ABC family); assay type: in vitro ADME; details: transporter-overexpressing cell lines, read-out: Drug transporters inhibition MRP2
MRP2, sequence (Q92887 whole entry): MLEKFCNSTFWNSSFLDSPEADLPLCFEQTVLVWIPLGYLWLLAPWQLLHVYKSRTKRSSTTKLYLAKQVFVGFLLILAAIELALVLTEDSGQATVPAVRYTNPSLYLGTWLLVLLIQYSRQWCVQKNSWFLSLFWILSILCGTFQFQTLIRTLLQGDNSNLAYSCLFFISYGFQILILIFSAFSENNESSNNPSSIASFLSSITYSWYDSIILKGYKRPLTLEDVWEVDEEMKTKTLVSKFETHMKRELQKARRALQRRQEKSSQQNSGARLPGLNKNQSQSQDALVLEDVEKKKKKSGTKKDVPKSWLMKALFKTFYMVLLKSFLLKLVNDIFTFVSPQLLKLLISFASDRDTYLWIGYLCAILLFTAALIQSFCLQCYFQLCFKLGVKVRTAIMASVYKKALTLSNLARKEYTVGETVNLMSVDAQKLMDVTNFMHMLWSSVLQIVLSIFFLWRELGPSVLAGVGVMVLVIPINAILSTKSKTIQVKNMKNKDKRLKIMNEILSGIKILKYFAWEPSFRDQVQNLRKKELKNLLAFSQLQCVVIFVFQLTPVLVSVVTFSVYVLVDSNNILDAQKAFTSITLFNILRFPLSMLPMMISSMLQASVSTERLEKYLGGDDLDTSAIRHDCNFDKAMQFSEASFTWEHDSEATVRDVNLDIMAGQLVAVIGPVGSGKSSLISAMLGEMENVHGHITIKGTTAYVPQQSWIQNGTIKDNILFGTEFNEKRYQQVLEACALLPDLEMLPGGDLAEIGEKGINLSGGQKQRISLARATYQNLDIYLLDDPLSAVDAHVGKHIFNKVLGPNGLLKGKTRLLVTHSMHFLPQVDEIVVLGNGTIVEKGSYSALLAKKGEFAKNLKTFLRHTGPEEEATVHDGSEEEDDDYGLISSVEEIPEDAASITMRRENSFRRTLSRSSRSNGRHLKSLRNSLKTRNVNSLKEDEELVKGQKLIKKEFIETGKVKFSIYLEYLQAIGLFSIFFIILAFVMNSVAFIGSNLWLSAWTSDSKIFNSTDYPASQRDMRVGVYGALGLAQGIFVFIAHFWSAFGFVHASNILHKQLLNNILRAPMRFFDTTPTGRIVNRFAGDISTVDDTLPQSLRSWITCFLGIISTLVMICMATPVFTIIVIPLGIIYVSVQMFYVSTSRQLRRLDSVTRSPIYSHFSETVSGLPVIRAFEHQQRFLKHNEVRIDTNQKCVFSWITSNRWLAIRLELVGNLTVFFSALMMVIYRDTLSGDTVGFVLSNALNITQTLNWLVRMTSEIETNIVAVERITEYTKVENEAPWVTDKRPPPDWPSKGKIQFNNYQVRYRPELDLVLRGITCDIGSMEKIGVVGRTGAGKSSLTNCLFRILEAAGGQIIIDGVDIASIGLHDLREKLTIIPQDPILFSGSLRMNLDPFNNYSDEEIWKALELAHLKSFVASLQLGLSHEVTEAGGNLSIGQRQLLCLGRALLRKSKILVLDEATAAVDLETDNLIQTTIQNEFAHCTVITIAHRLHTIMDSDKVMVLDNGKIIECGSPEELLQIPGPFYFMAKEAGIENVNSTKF
Procedure: as §1

[1] = Microsomal stability in mouse liver microsomes; assay type: in vitro ADME; details: mLM; for Compound Remaining (1 h, %): 10 µM; for half-life at 10 µM / microsomal CLint at 10 µM: mouse, liver microsomes
Procedure: Metabolic stability analysis (mouse and human liver microsomes) was performed by Eurofins Cerep (Poitiers, France) at 10 µM as described in [55]. Results were obtained at 15, 30, 45 and 60 min. Results were expressed as percent of the parent compound remaining, and calculated by comparing the peak area of the compound at the time point relative to that at time 0. The half-life (t1/2) and the apparent intrinsic clearance (CLint) were evaluated.

CYP3A = assay: CYP inhibition in human liver microsomes; assay type: in vitro ADME; details: read-out: CYPs inhibition CYP3A
Procedure: as §1

CYP2C9 = target: T2, CYP2C9 (Homo sapiens, UniProt P11712); assay: CYP inhibition in human liver microsomes; assay type: in vitro ADME; details: read-out: CYPs inhibition CYP2C9
T2 construct: tissue Eurofins Cerep (CRO); host or cells: human liver microsomes
T2 sequence (P11712 whole entry): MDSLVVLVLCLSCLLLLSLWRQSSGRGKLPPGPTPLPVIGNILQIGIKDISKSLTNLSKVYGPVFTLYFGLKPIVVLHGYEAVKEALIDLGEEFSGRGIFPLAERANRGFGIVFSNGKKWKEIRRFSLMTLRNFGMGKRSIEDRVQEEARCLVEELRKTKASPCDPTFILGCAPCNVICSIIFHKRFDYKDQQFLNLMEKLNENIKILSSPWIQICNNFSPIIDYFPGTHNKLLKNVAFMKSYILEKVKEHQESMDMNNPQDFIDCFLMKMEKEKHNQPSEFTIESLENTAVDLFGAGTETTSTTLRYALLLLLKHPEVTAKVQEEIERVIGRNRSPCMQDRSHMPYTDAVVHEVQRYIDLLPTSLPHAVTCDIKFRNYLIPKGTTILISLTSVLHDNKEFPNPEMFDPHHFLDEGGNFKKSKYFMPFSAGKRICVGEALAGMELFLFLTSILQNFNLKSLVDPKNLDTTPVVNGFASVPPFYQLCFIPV
Procedure: as §1

Plasma stability = assay type: in vitro ADME; details: male, CD-1, mouse, 37 °C, read-out: Plasma t½ (converted)
Procedure: Plasma stability analyses were performed by M2SV (Lille, France). Incubations were performed in duplicate. The plasma (male mouse plasma CD-1, lithium-heparinized, from Sera Laboratories International Ltd. BioIVT, West Sussex, UK) was pre-incubated for 10 min at 37 °C before addition of the compound to a final concentration of 10 µM (0,1% DMSO). At the defined time points (0, 60, 1440 and 2880 min), fractions from each tube were transferred to fresh tubes containing cold CH3CN and an internal standard (Propanolol at 1 µM). After vigorous agitation and centrifugation (10 min at 10,000 rpm), the supernatants were analyzed. The degradation half-life (t1/2) values were calculated in minutes and hours via non-linear regression analysis using Microsoft® XLfit® Excel add-in from IDBS Ltd, Woking, UK.

hERG = target: T3, hERG (Homo sapiens, UniProt Q12809); assay: hERG automated patch-clamp in hERG-CHO cells; assay type: cell-based
T3 construct: host or cells: CHO (hERG-CHO overexpressing cells)
T3 sequence (Q12809 whole entry): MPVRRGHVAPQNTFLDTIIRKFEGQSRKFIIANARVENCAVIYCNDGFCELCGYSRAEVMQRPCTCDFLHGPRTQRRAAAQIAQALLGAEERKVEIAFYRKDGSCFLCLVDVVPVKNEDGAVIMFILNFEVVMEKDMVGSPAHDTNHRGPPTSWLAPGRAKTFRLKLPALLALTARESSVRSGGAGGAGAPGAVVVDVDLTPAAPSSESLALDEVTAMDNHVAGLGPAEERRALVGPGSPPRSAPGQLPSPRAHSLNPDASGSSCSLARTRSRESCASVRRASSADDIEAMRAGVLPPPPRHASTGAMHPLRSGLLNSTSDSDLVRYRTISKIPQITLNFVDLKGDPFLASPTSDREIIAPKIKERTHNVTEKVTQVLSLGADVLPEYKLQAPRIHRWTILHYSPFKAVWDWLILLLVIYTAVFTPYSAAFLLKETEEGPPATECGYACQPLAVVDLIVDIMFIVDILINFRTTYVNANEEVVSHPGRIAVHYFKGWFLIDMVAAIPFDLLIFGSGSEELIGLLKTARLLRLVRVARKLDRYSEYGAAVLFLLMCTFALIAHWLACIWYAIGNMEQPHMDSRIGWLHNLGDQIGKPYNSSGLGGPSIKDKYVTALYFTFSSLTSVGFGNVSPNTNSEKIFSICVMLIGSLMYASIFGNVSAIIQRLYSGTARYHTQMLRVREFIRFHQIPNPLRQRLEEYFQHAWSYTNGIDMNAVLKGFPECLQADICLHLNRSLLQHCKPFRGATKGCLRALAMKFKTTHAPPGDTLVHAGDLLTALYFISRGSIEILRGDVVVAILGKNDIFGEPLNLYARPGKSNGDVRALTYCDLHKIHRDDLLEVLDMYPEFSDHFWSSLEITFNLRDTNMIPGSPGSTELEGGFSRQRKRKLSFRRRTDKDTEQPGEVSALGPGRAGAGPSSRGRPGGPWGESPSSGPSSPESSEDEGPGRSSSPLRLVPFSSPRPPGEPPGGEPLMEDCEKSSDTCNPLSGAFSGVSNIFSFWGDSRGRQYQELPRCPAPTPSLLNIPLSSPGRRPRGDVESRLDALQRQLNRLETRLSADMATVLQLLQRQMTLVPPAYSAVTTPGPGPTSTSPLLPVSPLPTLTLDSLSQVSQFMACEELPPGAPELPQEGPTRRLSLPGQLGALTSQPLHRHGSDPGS
Procedure: Cardiotoxicity analysis was performed by Eurofins Cerep (Poitiers, France) according to [73]. hERG-CHO overexpressing cells were used to perform automated patch-clamping. Compound 7i was evaluated at 0.1, 1 and 10 µM. Activities were expressed as % inhibition of tail current.

NTCP = NTCP (Homo sapiens, UniProt Q14973); assay: Drug transporter inhibition (SLC family); assay type: in vitro ADME; details: read-out: Drug transporters inhibition NTCP
NTCP, sequence (Q14973 whole entry): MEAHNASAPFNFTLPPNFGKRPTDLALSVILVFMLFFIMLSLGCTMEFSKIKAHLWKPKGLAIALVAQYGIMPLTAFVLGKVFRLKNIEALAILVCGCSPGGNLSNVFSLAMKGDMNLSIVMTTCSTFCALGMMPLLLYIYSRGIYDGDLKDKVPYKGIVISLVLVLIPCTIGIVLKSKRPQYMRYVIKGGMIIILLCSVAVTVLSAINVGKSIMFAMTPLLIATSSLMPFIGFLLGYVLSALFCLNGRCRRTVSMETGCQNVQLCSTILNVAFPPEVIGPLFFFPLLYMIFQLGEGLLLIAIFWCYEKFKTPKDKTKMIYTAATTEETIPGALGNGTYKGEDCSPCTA
Procedure: as §1

OATP1B3 = OATP1B3 (Homo sapiens, UniProt Q9NPD5); assay: Drug transporter inhibition (SLC family); assay type: in vitro ADME; details: transporter-overexpressing cell lines, read-out: Drug transporters inhibition OATP1B3
Procedure: as §1

OATP1B1 = OATP1B1 (Homo sapiens, UniProt Q9Y6L6); assay: Drug transporter inhibition (SLC family); assay type: in vitro ADME; details: transporter-overexpressing cell lines, read-out: Drug transporters inhibition OATP1B1
Procedure: as §1

OAT1 = OAT1 (Homo sapiens, UniProt Q4U2R8); assay: Drug transporter inhibition (SLC family); assay type: in vitro ADME; details: transporter-overexpressing cell lines, read-out: Drug transporters inhibition OAT1
Procedure: as §1

OAT3 = OAT3 (Homo sapiens, UniProt Q8TCC7); assay: Drug transporter inhibition (SLC family); assay type: in vitro ADME; details: transporter-overexpressing cell lines, read-out: Drug transporters inhibition OAT3
OAT3, sequence (Q8TCC7 whole entry): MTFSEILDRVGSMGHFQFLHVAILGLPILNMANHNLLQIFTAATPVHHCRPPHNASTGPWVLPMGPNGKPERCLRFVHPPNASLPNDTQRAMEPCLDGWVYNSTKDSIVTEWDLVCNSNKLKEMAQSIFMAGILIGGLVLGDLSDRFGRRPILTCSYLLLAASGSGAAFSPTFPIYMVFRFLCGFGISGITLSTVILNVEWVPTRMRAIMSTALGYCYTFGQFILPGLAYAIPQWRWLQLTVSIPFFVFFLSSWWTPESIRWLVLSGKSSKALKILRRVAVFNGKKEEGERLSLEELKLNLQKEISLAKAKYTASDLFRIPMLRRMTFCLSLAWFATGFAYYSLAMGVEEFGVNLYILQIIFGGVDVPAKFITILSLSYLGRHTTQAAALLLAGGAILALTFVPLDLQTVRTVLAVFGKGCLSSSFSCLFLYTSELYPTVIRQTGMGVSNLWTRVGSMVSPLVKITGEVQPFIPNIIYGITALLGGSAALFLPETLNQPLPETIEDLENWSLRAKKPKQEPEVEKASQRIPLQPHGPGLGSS
Procedure: as §1

OCT2 = OCT2 (Homo sapiens, UniProt O15244); assay: Drug transporter inhibition (SLC family); assay type: in vitro ADME; details: transporter-overexpressing cell lines, read-out: Drug transporters inhibition OCT2
OCT2, sequence (O15244 whole entry): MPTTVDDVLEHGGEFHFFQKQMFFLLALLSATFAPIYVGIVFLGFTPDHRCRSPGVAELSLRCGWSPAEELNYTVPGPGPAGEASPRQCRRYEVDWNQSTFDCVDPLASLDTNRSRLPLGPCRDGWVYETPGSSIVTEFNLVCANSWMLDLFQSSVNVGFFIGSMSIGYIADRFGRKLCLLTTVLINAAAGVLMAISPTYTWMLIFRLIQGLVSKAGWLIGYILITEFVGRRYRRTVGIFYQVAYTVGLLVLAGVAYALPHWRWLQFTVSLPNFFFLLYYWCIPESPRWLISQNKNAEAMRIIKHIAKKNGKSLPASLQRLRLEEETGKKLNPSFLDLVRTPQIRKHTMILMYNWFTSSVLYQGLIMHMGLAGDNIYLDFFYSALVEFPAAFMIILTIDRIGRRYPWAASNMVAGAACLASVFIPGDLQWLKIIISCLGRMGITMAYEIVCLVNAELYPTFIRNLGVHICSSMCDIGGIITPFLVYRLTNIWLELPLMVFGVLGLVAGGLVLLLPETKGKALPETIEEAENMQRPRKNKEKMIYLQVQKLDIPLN
Procedure: as §1

OCT1 = OCT1 (Homo sapiens, UniProt O15245); assay: Drug transporter inhibition (SLC family); assay type: in vitro ADME; details: transporter-overexpressing cell lines, read-out: Drug transporters inhibition OCT1
Procedure: as §1

ABST = ABST (Homo sapiens, UniProt Q12908); assay: Drug transporter inhibition (SLC family); assay type: in vitro ADME; details: read-out: Drug transporters inhibition ABST
ABST, sequence (Q12908 whole entry): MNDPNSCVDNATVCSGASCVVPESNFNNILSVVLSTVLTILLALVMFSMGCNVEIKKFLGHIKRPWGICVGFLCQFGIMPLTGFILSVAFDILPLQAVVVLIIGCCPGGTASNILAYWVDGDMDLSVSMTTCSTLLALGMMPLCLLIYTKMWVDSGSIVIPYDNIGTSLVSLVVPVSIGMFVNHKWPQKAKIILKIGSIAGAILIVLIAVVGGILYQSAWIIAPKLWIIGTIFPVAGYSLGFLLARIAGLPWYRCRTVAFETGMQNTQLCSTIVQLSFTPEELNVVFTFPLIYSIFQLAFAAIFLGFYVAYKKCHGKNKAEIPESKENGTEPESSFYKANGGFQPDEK
Procedure: as §1

SMILES	inhibition at 10 µM (BCRP)	inhibition at 10 µM (P-gp)	inhibition at 10 µM (MRP1)	inhibition at 10 µM (MRP3)	inhibition at 10 µM (MRP2)	Compound Remaining (1 h, %) [1]	half-life at 10 µM [1]	microsomal CLint at 10 µM [1]	inhibition at 10 µM (CYP3A)	inhibition at 10 µM (CYP2C9)	half-life at 10 µM (Plasma stability)	inhibition at 10 µM (NTCP)	inhibition at 10 µM (OATP1B3)	inhibition at 10 µM (OATP1B1)	inhibition at 10 µM (OAT1)	inhibition at 10 µM (OAT3)	inhibition at 10 µM (OCT2)	inhibition at 10 µM (OCT1)	inhibition at 10 µM (ABST)	other results
O=C(NCCCNCc1ccccc1)c1ccc(Cl)cc1 [compound 7i-deMe]	-3%	1%	-3.4%	-0.6%	-11.5%	80%	> 3 h	< 115 µL/min/mg	3.2%	5.9%	23 h	8.7%	19.1%	8.6%	-6.2%	18.7%	85.8%	64.6%	5%	IC50 (hERG; read-out: hERG IC50): 1200 nM
CN(CCCNC(=O)c1ccc(Cl)cc1)Cc1ccccc1 [compound 7i]	8.3%	10.6%	1.9%	-0.3%	-18.8%	54%	> 1 h	< 115 µL/min/mg	36.9%	-7.2%	> 24 h	-1.7%	23.1%	12%	-9.6%	34.3%	49.4%	41.2%	5.3%	IC50 (hERG; Table 4, read-out: hERG inhibition IC50): 1000 nM
